Laboratory results reported in patent publication US10052330B2, “Substituted pyrido[3,4-b]pyrazines as Syk inhibitors” (HUTCHISON MEDIPHARMA LIMITED, priority 2011, dated 2018).
Like-named read-outs stand apart in the source and are kept apart here.

What was measured:
[1] = tested on: RBL-2H3 cells; experiment: IgE-induced Beta-hexosaminidase secretion in RBL-2H3 cells; type: cell-based; details: Rattus norvegicus
[2] = biological target: Syk kinase (Homo sapiens, UniProt P43405); experiment: Syk kinase enzymatic assay (Kit-Tyr 2 Peptide); type: biochemical
[3] = RBL-2H3, RBL-2H3 cells sensitized with SPE-7, stimulated with DNP-BSA, upper bound of each range is 'less than', read-out: IC50, IgE-induced Beta-hexosaminidase secretion
[4] = 8 concentrations, 1 μM down to 0.0003 μM, upper bound of each range is 'less than', read-out: IC50: Enzymatic Activity (Syk kinase)

Compound	IC50 [1, 3] [nM]	IC50 [2, 4] [nM]	IC50 ([1]; RBL-2H3, read-out: IC50, IgE-induced Beta-hexosaminidase secretion) [nM]	IC50 [2] [nM]	IC50 ([1]; RBL-2H3 cells sensitized with SPE-7, stimulated with DNP-BSA, upper bound of each range is 'less than', read-out: IC50, IgE-induced Beta-hexosaminidase secretion) [nM]
O=C(CC1CC1)N1CCN(c2ccc(-c3cc4nccnc4c(NC[C@@H]4CNCCO4)n3)cc2)CC1 [Compound 403]	100 to 1000	1 to 100			
CC1(C(=O)N2CCN(c3ccc(-c4cc5nccnc5c(NC[C@@H]5CNCCO5)n4)cc3)CC2)COC1 [Compound 404]	100 to 1000	1 to 100			
CC(C)C(=O)N1CCN(c2ccc(-c3cc4nccnc4c(NC[C@@H]4CNCCO4)n3)cc2)CC1 [Compound 405]	1 to 100	1 to 100			
C[C@@H](O)C(=O)N1CCN(c2ccc(-c3cc4nccnc4c(NC[C@@H]4CNCCO4)n3)cc2)CC1 [Compound 406]	100 to 1000	1 to 100			
O=C(C(F)F)N1CCN(c2ccc(-c3cc4nccnc4c(NC[C@@H]4CNCCO4)n3)cc2)CC1 [Compound 407]	1 to 100	1 to 100			
C[C@H](O)C(=O)N1CCN(c2ccc(-c3cc4nccnc4c(NC[C@@H]4CNCCO4)n3)cc2)CC1 [Compound 408]	100 to 1000	1 to 100			
N#CCC(=O)N1CCN(c2ccc(-c3cc4nccnc4c(NC[C@@H]4CNCCO4)n3)cc2)CC1 [Compound 409]	100 to 1000	1 to 100			
O=C(CCO)N1CCN(c2ccc(-c3cc4nccnc4c(NC[C@@H]4CNCCO4)n3)cc2)CC1 [Compound 410]	100 to 1000	1 to 100			
O=C(CC(F)(F)F)N1CCN(c2ccc(-c3cc4nccnc4c(NC[C@@H]4CNCCO4)n3)cc2)CC1 [Compound 411]	1 to 100	1 to 100			
CC(C)(O)C(=O)N1CCN(c2ccc(-c3cc4nccnc4c(NC[C@@H]4CNCCO4)n3)cc2)CC1 [Compound 412]	100 to 1000	1 to 100			
O=C(C1CCC1)N1CCN(c2ccc(-c3cc4nccnc4c(NC[C@@H]4CNCCO4)n3)cc2)CC1 [Compound 413]	1 to 100	1 to 100			
O=C(C1CCCC1)N1CCN(c2ccc(-c3cc4nccnc4c(NC[C@@H]4CNCCO4)n3)cc2)CC1 [Compound 414]	1 to 100	1 to 100			
O=C([C@@H]1CCCO1)N1CCN(c2ccc(-c3cc4nccnc4c(NC[C@@H]4CNCCO4)n3)cc2)CC1 [Compound 415]	1 to 100	1 to 100			
O=C([C@H]1CCCO1)N1CCN(c2ccc(-c3cc4nccnc4c(NC[C@@H]4CNCCO4)n3)cc2)CC1 [Compound 416]	1 to 100	1 to 100			
O=C([C@@H]1CCOC1)N1CCN(c2ccc(-c3cc4nccnc4c(NC[C@@H]4CNCCO4)n3)cc2)CC1 [Compound 417]	100 to 1000	1 to 100			
CC(=O)N1CCC(c2ccc(-c3cc4nccnc4c(NC[C@@H]4CNCCO4)n3)cc2)CC1 [Compound 418]	1 to 100	1 to 100			
CC(=O)N(C)C1CCN(c2ccc(-c3cc4nccnc4c(NC[C@@H]4CNCCO4)n3)cc2)CC1 [Compound 420]	100 to 1000	1 to 100			
O=C(c1ccoc1)N1CCN(c2ccc(-c3cc4nccnc4c(NCC4CNCCO4)n3)cc2)CC1 (stereo not shown) [Compound 421]	1 to 100	1 to 100			
N#CC1(C(=O)N2CCN(c3ccc(-c4cc5nccnc5c(NCC5CNCCO5)n4)cc3)CC2)CC1 (stereo not shown) [Compound 423]	1 to 100	1 to 100			

Compound	IC50 [1, 3] [nM]	IC50 [2, 4] [nM]	IC50 ([1]; RBL-2H3, read-out: IC50, IgE-induced Beta-hexosaminidase secretion) [nM]	IC50 [2] [nM]	IC50 ([1]; RBL-2H3 cells sensitized with SPE-7, stimulated with DNP-BSA, upper bound of each range is 'less than', read-out: IC50, IgE-induced Beta-hexosaminidase secretion) [nM]
O=C(CF)N1CCN(c2ccc(-c3cc4nccnc4c(NCC4CNCCO4)n3)cc2)CC1 (stereo not shown) [Compound 424]			1 to 100	1 to 100	
O=C(c1ccco1)N1CCN(c2ccc(-c3cc4nccnc4c(NCC4CNCCO4)n3)cc2)CC1 (stereo not shown) [Compound 425]	1 to 100	1 to 100			
CCCC(=O)N1CCN(c2ccc(-c3cc4nccnc4c(NC[C@@H]4CNCCO4)n3)cc2)CC1 [Compound 426]	1 to 100	1 to 100			
O=C(C(F)F)N1CCN(c2ccc(-c3cc4nccnc4c(NC[C@@H]4CNCCO4)n3)cc2F)CC1 [Compound 427]	1 to 100	1 to 100			
O=C(CC(F)(F)F)N1CCN(c2ccc(-c3cc4nccnc4c(NC[C@@H]4CNCCO4)n3)cc2F)CC1 [Compound 428]	1 to 100	1 to 100			
CCC(=O)N1CCN(c2ccc(-c3cc4nccnc4c(NC[C@@H]4CNCCO4)n3)cc2F)CC1 [Compound 429]	1 to 100	1 to 100			
O=C(C1CC(F)(F)C1)N1CCN(c2ccc(-c3cc4nccnc4c(NC[C@@H]4CNCCO4)n3)cc2)CC1 [Compound 432]	1 to 100	1 to 100			
CC(F)C(=O)N1CCN(c2ccc(-c3cc4nccnc4c(NC[C@@H]4CNCCO4)n3)cc2)CC1 (stereo partly shown) [Compound 433]	1 to 100	1 to 100			
N#CCCC(=O)N1CCN(c2ccc(-c3cc4nccnc4c(NC[C@@H]4CNCCO4)n3)cc2)CC1 [Compound 434]	100 to 1000	1 to 100			
CCS(=O)(=O)N1CCN(c2ccc(-c3cc4nccnc4c(NC[C@@H]4CNCCO4)n3)cc2)CC1 [Compound 435]	1 to 100	1 to 100			
CC(C)(F)C(=O)N1CCN(c2ccc(-c3cc4nccnc4c(NC[C@@H]4CNCCO4)n3)cc2)CC1 [Compound 437]	1 to 100	1 to 100			
CC(F)(F)C(=O)N1CCN(c2ccc(-c3cc4nccnc4c(NC[C@@H]4CNCCO4)n3)cc2)CC1 [Compound 438]	1 to 100	1 to 100			
O=C(C1CC1(F)F)N1CCN(c2ccc(-c3cc4nccnc4c(NC[C@@H]4CNCCO4)n3)cc2)CC1 (stereo partly shown) [Compound 439]	1 to 100	1 to 100			
CS(=O)(=O)N1CCN(c2ccc(-c3cc4nccnc4c(NC[C@@H]4CNCCO4)n3)cn2)CC1 [Compound 440]	100 to 1000	1 to 100			
CCS(=O)(=O)N1CCN(c2ccc(-c3cc4nccnc4c(NC[C@@H]4CNCCO4)n3)cn2)CC1 [Compound 441]	100 to 1000	1 to 100			
CS(=O)(=O)N1CCN(c2ccc(-c3cc4nccnc4c(NCC4CNCCC4(F)F)n3)cn2)CC1 (stereo not shown) [Compound 442]	1 to 100	1 to 100			
CCS(=O)(=O)N1CCN(c2ccc(-c3cc4nccnc4c(NCC4CNCCC4(F)F)n3)cn2)CC1 (stereo not shown) [Compound 443]	1 to 100	1 to 100			
CS(=O)(=O)N1CCN(c2ccc(-c3cc4nccnc4c(NCC4CNCCC4(F)F)n3)cc2)CC1 (stereo not shown) [Compound 444]	1 to 100	1 to 100			
CCS(=O)(=O)N1CCN(c2ccc(-c3cc4nccnc4c(NCC4CNCCC4(F)F)n3)cc2)CC1 (stereo not shown) [Compound 445]	1 to 100	1 to 100			

Compound	IC50 [1, 3] [nM]	IC50 [2, 4] [nM]	IC50 ([1]; RBL-2H3, read-out: IC50, IgE-induced Beta-hexosaminidase secretion) [nM]	IC50 [2] [nM]	IC50 ([1]; RBL-2H3 cells sensitized with SPE-7, stimulated with DNP-BSA, upper bound of each range is 'less than', read-out: IC50, IgE-induced Beta-hexosaminidase secretion) [nM]
CCS(=O)(=O)N1CCC(c2ccc(-c3cc4nccnc4c(NC[C@@H]4CNCCO4)n3)cc2)CC1 [Compound 446]	1 to 100	1 to 100			
CS(=O)(=O)N1CCC(c2ccc(-c3cc4nccnc4c(NCC4CNCCC4(F)F)n3)cc2)CC1 (stereo not shown) [Compound 447]	1 to 100	1 to 100			
CN1CCN(c2ccc(-c3cc4nccnc4c(NC[C@@H]4CN(C(=O)C(F)F)CCO4)n3)cc2)CC1 [Compound 449, (R)-2,2-difluoro-1-(2-((7-(4-(4-methylpiperazin-1-yl)phenyl)pyrido[4,3-b]pyrazin-5-ylamino)methyl)morpholino)ethanone]	1 to 100	1 to 100			
Cc1cc(-c2cc3nccnc3c(NC[C@@H]3CN(C(=O)C(F)F)CCO3)n2)ccc1N1CCOCC1 [Compound 450]	1 to 100	1 to 100			
O=C(C(F)F)N1CCO[C@H](CNc2nc(-c3ccc(N4CCOCC4)c(F)c3)cc3nccnc23)C1 [Compound 451]	1 to 100	1 to 100			
CN(C)c1ccc(-c2cc3nccnc3c(NC[C@@H]3CN(C(=O)C(F)F)CCO3)n2)cc1 [Compound 455]	1 to 100	1 to 100			
CN(C)c1ccc(-c2cc3nccnc3c(NC[C@@H]3CN(C(=O)C(F)F)CCO3)n2)cc1F [Compound 456]	1 to 100	1 to 100			
O=C(C(F)F)N1CCO[C@H](CNc2nc(-c3ccc(C4CCNCC4)cc3)cc3nccnc23)C1 [Compound 458]	100 to 1000	1 to 100			
CN1CCC(c2ccc(-c3cc4nccnc4c(NC[C@@H]4CN(S(C)(=O)=O)CCO4)n3)cc2)CC1 [Compound 460]	1 to 100	1 to 100			
CS(=O)(=O)N1CCO[C@H](CNc2nc(-c3ccc(N4CCNCC4)cc3)cc3nccnc23)C1 [Compound 462]	100 to 1000	1 to 100			
CN1CCC(c2ccc(-c3cc4nccnc4c(NC[C@@H]4CN(C(=O)C(F)F)CCO4)n3)cc2)CC1 [Compound 463]	100 to 1000	1 to 100			
CCN1CCC(c2ccc(-c3cc4nccnc4c(NC[C@@H]4CN(C(=O)C(F)F)CCO4)n3)cc2)CC1 [Compound 464]	100 to 1000	1 to 100			
CS(=O)(=O)N1CCC(c2ccc(-c3cc4nccnc4c(NC[C@@H]4CN(C(=O)C(F)F)CCO4)n3)cc2)CC1 [Compound 465]	1 to 100	1 to 100			
CC(=O)N1CCN(c2ccc(-c3cc4nccnc4c(NC[C@H]4CN(C(=O)C(F)F)CCO4)n3)cc2)CC1 [Compound 466, (S)-1-(2-((7-(4-phenylpiperazin-1-yl)ethanone[4,3-b]pyrazin-5-ylamino)methyl)morpholino)-2,2-difluoroethanone]		1 to 100			1 to 100
CS(=O)(=O)N1CCN(c2ccc(-c3cc4nccnc4c(NC[C@@H]4CN(C(=O)C(F)F)CCO4)n3)cc2)CC1 [Compound 467]	1 to 100	1 to 100			
CC(=O)N1CCC(c2ccc(-c3cc4nccnc4c(NC[C@@H]4CN(S(C)(=O)=O)CCO4)n3)cc2)CC1 [Compound 468]	100 to 1000	1 to 100			
CS(=O)(=O)N1CCC(c2ccc(-c3cc4nccnc4c(NC[C@@H]4CN(S(C)(=O)=O)CCO4)n3)cc2)CC1 [Compound 469]	1 to 100	1 to 100			
CC(=O)N1CCC(c2ccc(-c3cc4nccnc4c(NC[C@@H]4CN(C(=O)C(F)F)CCO4)n3)cc2)CC1 [Compound 470]	1 to 100	1 to 100			
